Measurements from patent US4782042A, “Antibiotic A 40926 mannosyl aglycon” (Gruppo Lepetit S.p.A., priority 1985, dated 1988).

Assays:
Staph. aureus Tour = assay: MIC, broth dilution (Isosensitest broth, 24 h); type: cell-based
[1] = tested on: Staph. epidermidis ATCC 12228; assay: MIC, broth dilution (Isosensitest broth, 24 h); type: cell-based
Strep. pyogenes C203 = assay: MIC, broth dilution (Todd-Hewitt broth, 24 h); type: cell-based
Strep. pneumoniae UC41 = assay: MIC, broth dilution (Todd-Hewitt broth, 24 h); type: cell-based
[2] = tested on: Strep. faecalis ATCC 7080; assay: MIC, broth dilution (Isosensitest broth, 24 h); type: cell-based
[3] = tested on: Strept. mitis clin. isolate; assay: MIC, broth dilution (Todd-Hewitt broth, 24 h); type: cell-based
[4] = tested on: Clostridium perfringens ISS30543; type: cell-based; conditions: anaerobic
[5] = tested on: Clostridium difficile ATCC 9689; assay: MIC, agar dilution (Wilkins-Chalgren agar, 48 h, anaerobic); type: cell-based
[6] = tested on: Bacteroides fragilis ATCC 23745; assay: as above; type: cell-based
[7] = tested on: Propionibacterium acnes ATCC 6919; assay: as above; type: cell-based
[8] = tested on: Neisseria gonorrhoeae ISM68/126; assay: MIC, broth dilution (GC base broth + 1% Isovitalex, 48 h, CO2-enriched); type: cell-based
[9] = tested on: Haemophilus influenzae type b ATCC 19418; assay: MIC, agar dilution (GB base agar + 1% Isovitalex + 0.001% hemin, 24 h); type: cell-based
[10] = tested on: Escherichia coli SKF 12140; assay: MIC, broth dilution (Isosensitest broth, 24 h); type: cell-based
[11] = tested on: Mycoplasma gallisepticum S6 Weybridge; assay: MIC, broth dilution (PPLO broth + 10% horse serum + 1% glucose, 48 h); type: cell-based
S. pyogenes C 203 = assay: Experimental septicemia in mice, ED50; type: in vivo; conditions: mice infected intraperitoneally with S. pyogenes C 203; treated subcutaneously about 30 min after infection; survival, calculated on the 10th day (Spearman and Karber)
Experimental: The antimicrobial activity of the compound of the invention is confirmed also in in vivo experiments conducted essentially as described by R. Pallanza et al., J. Antimicrob. Chemother. 11, 419 (1983). The experimental infection was induced in mice by intraperitoneally administering a suspension of S. pyogenes C 203. Inocula had been adjusted so that the untreated animals died of septicemia within 48 h. Animals were treated subcutaneously with the test compound about 30 min after infection. The ED50 value was calculated on the 10th day by the method of Spearman and Karber (D. J. Finney "Statistical Methods in Biological Assay", Griffin, page 524, 1952) on the basis of the percentage of survival at each dose.

antibiotic A 40926 mannosyl aglycon
M.I.C. (Staph. aureus Tour; Staph. aureus Tour (L165), 10^6 cfu/ml): 1 µg/mL
M.I.C. (Staph. aureus Tour; Staph. aureus Tour, 30% bovine serum): 2 µg/mL
M.I.C. (Staph. aureus Tour; Staph. aureus Tour, inoculum about 10^4-10^5 cfu/ml): 0.25 µg/mL
M.I.C. [1]: 0.5 µg/mL
M.I.C. (Strep. pyogenes C203): 1 µg/mL
M.I.C. (Strep. pneumoniae UC41): 1 µg/mL
M.I.C. [2]: 1 µg/mL
M.I.C. [3]: 1 µg/mL
M.I.C. [4]: 0.13 µg/mL
M.I.C. [5]: 2 µg/mL
M.I.C. [6]: 64 µg/mL
M.I.C. [7]: 1 µg/mL
M.I.C. [8]: 32 µg/mL
M.I.C. [9]: 64 µg/mL
M.I.C. [10]: > 128 µg/mL
M.I.C. [11]: > 128 µg/mL
ED50 (S. pyogenes C 203): 3.8 mg/kg
